Experimental data taken from PubChem BioAssay (NCI).
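Assay format: 96-well plates, 48-hour exposure. At the GI50, growth is halved. Definition used: TGI = concentration required for complete inhibition of growth.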

How the values were obtained:
Assay in all cases: NCI anticancer screen, dose series, 48 h
K-562 leukemia = system: K-562 leukemia
HCC-2998 colon = system: HCC-2998 colon
RPMI-8226 leukemia = system: RPMI-8226 leukemia
SF-539 CNS = system: SF-539 CNS
CCRF-CEM leukemia = system: CCRF-CEM leukemia
NCI-H460 lung = system: NCI-H460 lung
TK-10 renal = system: TK-10 renal
BT-549 breast = system: BT-549 breast
M14 melanoma = system: M14 melanoma
U251 CNS = system: U251 CNS

Compound	TGI (K-562 leukemia)	TGI (HCC-2998 colon)	TGI (RPMI-8226 leukemia)	TGI (SF-539 CNS)	TGI (CCRF-CEM leukemia)	TGI (NCI-H460 lung)	TGI (TK-10 renal)	TGI (BT-549 breast)	TGI (M14 melanoma)	TGI (U251 CNS)	GI50 (K-562 leukemia)	GI50 (HCC-2998 colon)	GI50 (RPMI-8226 leukemia)	GI50 (SF-539 CNS)	GI50 (CCRF-CEM leukemia)	GI50 (NCI-H460 lung)	GI50 (TK-10 renal)	GI50 (BT-549 breast)	GI50 (M14 melanoma)	GI50 (U251 CNS)
CC1=CCC([C@@](C)(O)CCCC(C)(C)N=C=S)CC1 (some centres undefined)	42.4 µM	32.4 µM	67.3 µM	33.3 µM	48.9 µM	33 µM	37.8 µM	33.5 µM	30.8 µM	32.9 µM										
COC(=O)/C=C\C(C#N)(C#N)N=Cc1ccc(C)cc1	16.7 µM	35.3 µM	3.52 µM	10.9 µM	2.1 µM	41.1 µM	3.65 µM	11.2 µM	4.42 µM	27.7 µM										
O=S(=O)(O)C(CO)c1ccccc1 (centres undefined) (tested in a mixture with another compound)	> 100 µM	> 100 µM	> 100 µM	> 100 µM	> 100 µM	> 100 µM	> 100 µM	> 100 µM	> 100 µM	> 100 µM										
COc1ccc(N2C(=O)CC(=O)N(NC(=O)C(C)Oc3ccccc3C)C2=S)cc1 (centres undefined)	> 100 µM	> 100 µM	> 100 µM	> 100 µM	> 100 µM	> 100 µM	> 100 µM	> 100 µM	> 100 µM	> 100 µM										
Nc1ncc(-c2ccc3ncnc(Nc4ccc(F)c(Cl)c4)c3c2)cn1	> 100 µM	> 100 µM	7.51 µM	2.93 µM	> 100 µM	2.96 µM	1.42 µM	8.27 µM	17.1 µM	4.24 µM	3.25 µM	22.2 µM	2.15 µM	1.52 µM	2.86 µM	1.44 µM	0.132 µM	1.88 µM	3.74 µM	1.72 µM
O=[N+]([O-])C(=C(Nc1ccccc1)Nc1ccccc1)C(Cl)=C(Cl)Cl	33.4 µM	37.9 µM	65.9 µM	35.4 µM	28.1 µM	33 µM	38 µM	29.6 µM	36.1 µM	35.3 µM										
COc1cc(O)c2c(c1)C(=O)c1cc3c(c(O)c1C2=O)C(OC1OC(C)C(OC)C(O)C1OC)C(OC)C(C)(O)C3=O (centres undefined)	19.4 µM	17.4 µM	4.6 µM	17.8 µM	41.6 µM	10.8 µM	23.7 µM	31.6 µM	9.61 µM	22.8 µM										
CC(=O)NC1C(OCc2ccccc2)OC(CO)C(O)C1OCC(=O)N[C@@H](C)C(=O)N[C@H](CCC(=O)NCCCNc1c2ccccc2nc2cccc([N+](=O)[O-])c12)C(N)=O (some centres undefined)	> 39.8 µM	0.0301 µM	0.242 µM	0.279 µM	> 100 µM	0.0609 µM	1.55 µM	0.287 µM	0.209 µM	4.46 µM										
CSc1cc(-c2cccs2)sc1-c1cc(SC)c(-c2sc(-c3sc(-c4cccs4)cc3SC)cc2SC)s1	> 100 µM	> 100 µM	> 100 µM	> 100 µM	> 100 µM	> 100 µM	> 100 µM	> 100 µM	> 100 µM	> 100 µM										
O=C1NC(N2CCOCC2)=N/C1=C\c1ccco1		> 100 µM	> 100 µM	> 100 µM	> 100 µM		> 100 µM	> 100 µM	> 100 µM	> 100 µM										
Oc1cc(Cl)cc2cccnc12	2.66 µM	> 70 µM	5.31 µM	> 67 µM	1.95 µM	18.6 µM	> 100 µM	> 91.1 µM	> 37.4 µM	> 47.9 µM										
Cc1cc(/N=C/c2ccc(N(C)C)cc2)n(-c2ccccc2)n1	> 100 µM	61.7 µM	> 100 µM	> 100 µM	> 100 µM	> 100 µM	> 100 µM	> 100 µM	> 100 µM	> 100 µM										
CC(C)c1cc2c(c(O)c1O)[C@@]1(C(=O)O)CCCC(C)(C)[C@@H]1CC2	> 100 µM	28.8 µM	30.3 µM	38.8 µM	42.3 µM	50.9 µM	31.5 µM	28.7 µM		30.3 µM										
CC1(C)[C@@H]2CC[C@@]1(C)CN(CCC[N+](C)(C)C)C2	> 100 µM	> 100 µM	> 100 µM	> 100 µM	> 100 µM	> 100 µM	> 100 µM	> 100 µM	> 100 µM	> 100 µM										
O=[N+]([O-])C(=C(Nc1cccc2cccnc12)Nc1cccc2cccnc12)C(Cl)=C(Cl)Cl	> 100 µM	> 100 µM	> 100 µM	> 100 µM	> 100 µM	> 100 µM	> 100 µM	> 100 µM	> 100 µM	> 100 µM										
S=c1c2cn[nH]c2nc2scc(-c3ccc(Cl)cc3)n12	> 100 µM	32.5 µM	64.9 µM	38.4 µM	50.9 µM	57.5 µM	31.8 µM	27.5 µM	36.3 µM	25.8 µM										

Compound	TGI (K-562 leukemia)	TGI (HCC-2998 colon)	TGI (RPMI-8226 leukemia)	TGI (SF-539 CNS)	TGI (CCRF-CEM leukemia)	TGI (NCI-H460 lung)	TGI (TK-10 renal)	TGI (BT-549 breast)	TGI (M14 melanoma)	TGI (U251 CNS)	GI50 (K-562 leukemia)	GI50 (HCC-2998 colon)	GI50 (RPMI-8226 leukemia)	GI50 (SF-539 CNS)	GI50 (CCRF-CEM leukemia)	GI50 (NCI-H460 lung)	GI50 (TK-10 renal)	GI50 (BT-549 breast)	GI50 (M14 melanoma)	GI50 (U251 CNS)
C=C(C(=O)OCC)C(=O)OCC	> 100 µM	> 100 µM	> 100 µM	> 100 µM	> 100 µM	> 100 µM	> 100 µM	> 100 µM	> 100 µM	> 100 µM										
CC(=NNC(=S)Nc1ccccc1)c1cccc(C(C)=NNC(=S)Nc2ccccc2)n1	> 53.5 µM	> 100 µM	> 31.4 µM	12.5 µM	> 100 µM	> 56.8 µM	> 100 µM	> 100 µM	21.2 µM	> 100 µM										
O=C1c2cc(-c3ccccc3)cnc2S(=O)(=O)N1c1ccc(Br)cc1		39.5 µM	82.2 µM	87.2 µM	> 100 µM	75 µM	> 100 µM	> 100 µM	> 100 µM	90.3 µM										
CC(C)(C)[Si](C)(C)OCC1OC(n2ccc(=O)[nH]c2=O)C(O[Si](C)(C)C(C)(C)C)/C1=C/C#N (centres undefined)		> 100 µM	> 100 µM	> 64 µM	> 100 µM	> 100 µM	> 44 µM	> 100 µM	> 100 µM	> 44 µM										
N[C@@H](Cc1ccccc1)C(=O)N1CCC[C@@H]1P(=O)(Oc1ccccc1)Oc1ccccc1	> 100 µM	> 100 µM	> 100 µM	> 100 µM	> 100 µM	> 100 µM	> 100 µM	> 100 µM	> 100 µM	> 100 µM										
CCOC(=O)c1cccc(N=Nc2nc[nH]c2/C=C/C(=O)OC)c1	> 100 µM	28.2 µM	> 100 µM	> 100 µM	> 100 µM	53 µM	> 100 µM	> 100 µM	49.6 µM	> 100 µM										
CCNC(=S)NNC(=O)C12CC3CC(CC(C3)C1)C2	> 100 µM	> 100 µM	> 100 µM	> 100 µM	> 100 µM	> 100 µM	> 100 µM	> 100 µM	> 100 µM	> 100 µM										
Cc1nc(C)c(N2CCN([N+](=O)[O-])CC2)c(=O)[nH]1	> 100 µM	> 100 µM	> 100 µM	> 100 µM	> 100 µM	> 100 µM	> 100 µM	> 100 µM	> 100 µM	> 100 µM										
O=C(/C=C/c1ccccc1)Oc1ccc(C(=O)/C=C/c2ccccc2)cc1	> 29.8 µM	15.3 µM	15.4 µM	22.3 µM	10.9 µM	18.8 µM	20.8 µM	17.7 µM	23.3 µM											
CC(C)SC(=S)Sc1c(Cl)c(Cl)nc(Cl)c1Cl	10.7 µM	12.7 µM	4.29 µM	24.8 µM	6.09 µM	36.6 µM	18.4 µM	34.2 µM	26.7 µM	14 µM										
COc1cc(OC)cc(C(=O)CC(=O)c2cc(OC)cc(OC)c2)c1	> 100 µM	> 100 µM	> 100 µM	> 100 µM	> 100 µM	> 100 µM	> 100 µM	> 100 µM	> 100 µM	> 100 µM										
N#CC(C#N)=C1SC(=Nc2ccccc2)C(=Nc2ccccc2)N1c1ccccc1	7.12 µM	> 72 µM	> 55.3 µM	22.5 µM	6.35 µM	> 31.6 µM	> 100 µM	21.5 µM	54.7 µM	41 µM										
Cc1c2cc[n+](C)c(C)c2cc2c1[nH]c1ccccc12	61.3 µM	32.2 µM	73.5 µM	46.2 µM	75.3 µM	26.5 µM	> 100 µM	18.9 µM	> 100 µM	8.41 µM										
CC1(C)OC[C@@H](O)[C@H](C#N)CO1	> 100 µM	> 100 µM	> 100 µM	> 100 µM	> 100 µM	> 100 µM	> 100 µM	> 100 µM	> 100 µM	> 100 µM										
CCCCCCCCCCCC[S+](C)C	49.4 µM	16.8 µM	28.4 µM	19.4 µM	14.5 µM	33.2 µM	18.3 µM	7.68 µM	19.9 µM	31.7 µM										
